Earlier results in patent publication US12226415B2, “Methods and compositions for the treatment of hair loss” (Aneira Pharma Inc., priority 2019, dated 2025).
One block for each compound: values may come before it.

What was measured:
human FP receptors = human FP receptors (Homo sapiens, UniProt P43088)
hair growth = conditions: for hair growth: McCarey et al. 2004
intraocular pressure = conditions: glaucomatous monkey eyes, Gagliuso et al. 2004
[1] = tested on: elevated intraocular pressure; conditions: some human glaucoma patients non-responsive to latanoprost, Gandolfi 2003
[2] = tested on: production of dihydrotestosterone (DHT); conditions: oral; including in the prostate gland and the scalp
[3] = propylene glycol, methanol, ethanol and 2-propanol

Chain of human FP receptors (P43088 whole entry): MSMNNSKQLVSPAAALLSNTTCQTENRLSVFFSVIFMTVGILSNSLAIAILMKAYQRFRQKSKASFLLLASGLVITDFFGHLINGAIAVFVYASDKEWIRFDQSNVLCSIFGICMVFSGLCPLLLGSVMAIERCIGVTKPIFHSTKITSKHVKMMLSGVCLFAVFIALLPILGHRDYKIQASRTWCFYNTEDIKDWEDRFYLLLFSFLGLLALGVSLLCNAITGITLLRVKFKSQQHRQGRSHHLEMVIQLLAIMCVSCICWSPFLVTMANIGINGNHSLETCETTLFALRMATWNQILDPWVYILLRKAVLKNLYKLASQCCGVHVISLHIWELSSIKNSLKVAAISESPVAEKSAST

potency relative to PGF2α (human FP receptors): twice the potency of PGF2α
SMILES: O=C(O)CCC/C=C\C[C@@H]1[C@@H](CC[C@@H](O)CCc2ccccc2)[C@H](O)C[C@@H]1O [Latanoprost free acid]

SMILES: CCCCCCCC(=O)CC[C@@H]1[C@@H](C/C=C\CCCC(=O)OC(C)C)[C@@H](O)C[C@H]1O [Uenoprostone isopropyl ester]
hair growth (hair growth): no hair growth
incidence of iris pigmentation and eyelash changes (hair growth; two randomized clinical trials, 0.15%): Low incidence

SMILES: CCNC(=O)CCC/C=C\C[C@@H]1[C@@H](/C=C/[C@@H](O)CCc2ccccc2)[C@H](O)C[C@@H]1O [bimatoprost]
effect on elevated intraocular pressure in combination with latanoprost (intraocular pressure): additive
response in reducing elevated intraocular pressure [1]: responsive

SMILES: CC(C)(C)NC(=O)[C@H]1CC[C@H]2[C@@H]3CC[C@H]4NC(=O)C=C[C@]4(C)[C@H]3CC[C@]12C [finasteride, (1S,3aS,3bS,5aR,9aR,9bS,11aS)—N-tert-butyl-9a,11a-dimethyl-7-oxo-1,2,3,3a,3b,4,5,5a,6,9b,10,11-dodecahydroindeno[5,4-f]quinoline-1-carboxamide]
decrease of production of dihydrotestosterone (DHT) [2]: about 70%

solubility (concentration that can be obtained) [3]: ≥ 5%
SMILES: CC(C)OC(=O)CCC/C=C\C[C@@H]1[C@@H](CC[C@@H](O)CCc2ccccc2)[C@H](O)C[C@@H]1O [latanoprost, isopropyl ester of 17-phenyl-13,14-dihydro prostaglandin F2a]

SMILES: CCCCCCCC(=O)CC[C@@H]1[C@@H](C/C=C\CCCC(=O)O)[C@@H](O)C[C@H]1O [uenoprostone free acid]
hair growth (hair growth): no hair growth
